Measured values published in paper PMC4503980 (Scientific Reports, 2015).
Peptide text beside a SMILES is read from it. * marks the point of attachment. 5TAMRA = CN(C)c1ccc2c(c1)Oc1cc(N(C)C)ccc1C21OC(=O)c2cc(C(=O)*)ccc21

Columns and labels:
Format in all cases: binding
[1] = biological target: T1, PSD-95-PDZ1-2 (Homo sapiens, UniProt P78352); experiment: FP saturation and inhibition, TAMRA-Cnskr2 / PSD-95-PDZ1-2; conditions: saturation, TAMRA-Cnskr2 5 nM; read-out: Kd probe / PSD-95-PDZ1-2
T1 construct: PDZ1-2 (61-249); made in house; host or cells: E. coli BL21-DE3 pLysS
From the text: (§1) First we tested a series of 23 fluorescent-labelled C-terminal peptide ligands (Supplementary Table S1) derived from PDZ-interacting proteins in order to find a probe with good activity towards the PSD-95 PDZ domains and no or little activity against nNOS-PDZ (Supplementary Fig. S1). The Cnskr2 probe fulfilled these selectivity criteria and was used to generate saturation curves with PDZ2 and PDZ1-2 of PSD-95 (Fig. 4a). […] Next, fixed concentrations of TAMRA-Cnskr2, PSD-95-PDZ2/1-2, and nNOS-PDZ were applied, corresponding to the conditions at IC50 of the nNOS-PDZ inhibition curve (Fig. 4b) where sensitivity of the assay is greatest. […] Here, we used the Sapk3-peptide as it has the desired high affinity to α1-Syntrophin-PDZ and low affinity to nNOS-PDZ (Supplementary Fig. S1).
(§2) The minor increases in mP at high concentrations, 260-2900 μM, were due to fluorescence artefacts.
(§3) Incubation time was 10–15 minutes (room temperature), and the assay was performed in a 1 × TBS buffer (150 mM NaCl, 10 mM Tris, pH 7.4) using black flat-bottom 384-well plates (Corning Life Sciences, NY) and a Safire2 plate-reader (Tecan, Männedorf, Switzerland). […] TAMRA- and Cy5-probes were measured at excitation/emission values of 530/585 nm (bandwidth = 20 nm) and 635/670 nm (bandwidth = 15 nm), respectively. […]

[2] = biological target: T2, nNOS-PDZ (Homo sapiens, UniProt P29475); experiment: FP saturation, TAMRA-Cnskr2 / nNOS-PDZ; conditions: TAMRA-Cnskr2 5 nM, read-out: Kd probe / nNOS-PDZ
T2 construct: nNOS-PDZ (12–130, human); made in house; host or cells: E. coli
From the text: as §1, §2, §3

[3] = biological target: PSD-95-PDZ2 (Homo sapiens, UniProt P78352); experiment: FP saturation and inhibition, TAMRA-Cnskr2 / PSD-95-PDZ2; parameters: PDZ2 (155-249); made in house; host or cells: E. coli BL21-DE3 pLysS; conditions: saturation, TAMRA-Cnskr2 5 nM; read-out: Kd probe / PSD-95-PDZ2
From the text: as §1, §2, §3

T2 sequence (P29475 12-130): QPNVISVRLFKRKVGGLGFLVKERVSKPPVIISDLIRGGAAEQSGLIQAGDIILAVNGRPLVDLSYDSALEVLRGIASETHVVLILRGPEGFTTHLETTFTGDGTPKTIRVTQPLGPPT
T1 sequence (P78352 61-249): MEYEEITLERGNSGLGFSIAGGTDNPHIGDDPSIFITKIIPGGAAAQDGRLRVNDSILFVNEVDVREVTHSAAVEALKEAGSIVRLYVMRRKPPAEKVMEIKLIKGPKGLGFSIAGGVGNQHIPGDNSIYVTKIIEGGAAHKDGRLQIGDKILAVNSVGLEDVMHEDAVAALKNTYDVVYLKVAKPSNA
Sequence of PSD-95-PDZ2 (P78352 155-249): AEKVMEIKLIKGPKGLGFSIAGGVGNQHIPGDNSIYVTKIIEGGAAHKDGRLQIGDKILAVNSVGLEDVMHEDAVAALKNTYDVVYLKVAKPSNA

In the case of `CC[C@H](C)[C@H](NC(=O)[C@H](Cc1ccc(O)cc1)NC(=O)[C@H](CO)NC(=O)[C@H](Cc1c[nH]cn1)NC(=O)[C@@H](NC(=O)[C@H](Cc1c[nH]cn1)NC(=O)CNC(=O)[C@H](CC(N)=O)NC(=O)[C@H](CC(N)=O)NC(=O)c1ccc2c(c1)C(=O)OC21c2ccc(N(C)C)cc2Oc2cc(N(C)C)ccc21)[C@@H](C)O)C(=O)N[C@@H](CCC(=O)O)C(=O)N[C@H](C(=O)N[C@@H](Cc1c[nH]cn1)C(=O)N[C@H](C(=O)O)C(C)C)[C@@H](C)O` [TAMRA-Cnskr2] (5TAMRA-NNGHTHSYIETHV-OH), the Kd [1] is reported as 1.1 ± 0.1 µM, the Kd [2] is reported as > 190 µM and the Kd [3] is reported as 0.38 ± 0.03 µM.
